Source: patent publication US7887784B2, “1-[(2′-substituted)-piperazin-1′ -yl]-isoquinolines as norepinephrine transporter inhibitor therapeutics and positron emission tomography imaging agents” (University of Montana, priority 2007, dated 2011)

How the values were obtained:
NET = biological target: T1, NET (Rattus norvegicus, UniProt Q9WTR4); assay: NET competitive binding assay with [3H]nisoxetine, rat brain cortical homogenates; conditions: partially purified rat brain cortical homogenates, 0° C., 4 h, Ki derived from IC50
T1 construct: The protocol employed partially purified rat brain cortical homogenates; from tissue; host or cells: rat brain cortex homogenate
Description: The protocol employed partially purified rat brain cortical homogenates, [^3H]nisoxetine, incubated 0° C., 4 h; with nonspecific binding determined with added 1 microM of desipramine (DMI) and desipramine as the parallel positive control.

SERT = SERT (Rattus norvegicus, UniProt P31652); assay: SERT competitive binding, [3H]Citalopram; conditions: partially purified rat protein, nonspecific Clomipramine, 25° C., 1 h, read-out: Ki of (±)-14, SERT
Excerpt: (§1) The evaluation of the competitive binding affinities (Ki values) of (±)-14 for the serotonin and dopamine transporter proteins (SERT and DAT, respectively), the beta-adrenergic receptor, and also serotonin 1a and 2a receptors has been made. The competitive binding profiles of (±)-14 at these other CNS sites are summarized in Table 2, where the assay conditions are defined. […] Thus, compound (±)-14 is considered to have potent NET selectivity (Table 1, Example X) relative to the potencies at the other sites as defined per Table 2.

DAT = DAT (Rattus norvegicus, UniProt P23977); assay: DAT competitive binding, [3H]B-CFT; conditions: partially purified rat protein, nonspecific GBR-12,909, 0° C., 2 h, read-out: Ki of (±)-14, DAT
Excerpt: as §1

5-HT1A = biological target: T2, 5-HT1A (Homo sapiens, UniProt P08908); assay: 5-HT1A receptor competitive binding, [3H]8-OH-DPAT; conditions: partially purified human protein expressed in CHO cells, nonspecific 5-HT, 30° C., 0.5 h, read-out: Ki of (±)-14, 5-HT1A
T2 sequence (P08908 1-422): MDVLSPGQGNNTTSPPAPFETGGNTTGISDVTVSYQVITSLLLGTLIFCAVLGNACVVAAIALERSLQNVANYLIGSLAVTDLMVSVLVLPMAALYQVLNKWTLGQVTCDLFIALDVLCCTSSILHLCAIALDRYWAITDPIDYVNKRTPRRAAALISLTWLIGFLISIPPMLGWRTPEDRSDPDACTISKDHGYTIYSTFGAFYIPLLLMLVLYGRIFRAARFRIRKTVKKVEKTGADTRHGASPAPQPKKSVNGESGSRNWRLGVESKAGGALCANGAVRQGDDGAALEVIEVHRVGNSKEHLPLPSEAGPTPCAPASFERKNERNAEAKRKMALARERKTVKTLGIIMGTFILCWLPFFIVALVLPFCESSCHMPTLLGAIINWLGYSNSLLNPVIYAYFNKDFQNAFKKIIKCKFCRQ
Excerpt: as §1

5-HT2A = 5-HT2A (Homo sapiens, UniProt P28223); assay: 5-HT2A receptor competitive binding, [3H]Ketanserin; conditions: partially purified human protein expressed in CHO cells, nonspecific Mianserin, 30° C., 0.5 h, read-out: Ki of (±)-14, 5-HT2A
Excerpt: as §1

T1 sequence (Q9WTR4 1-597): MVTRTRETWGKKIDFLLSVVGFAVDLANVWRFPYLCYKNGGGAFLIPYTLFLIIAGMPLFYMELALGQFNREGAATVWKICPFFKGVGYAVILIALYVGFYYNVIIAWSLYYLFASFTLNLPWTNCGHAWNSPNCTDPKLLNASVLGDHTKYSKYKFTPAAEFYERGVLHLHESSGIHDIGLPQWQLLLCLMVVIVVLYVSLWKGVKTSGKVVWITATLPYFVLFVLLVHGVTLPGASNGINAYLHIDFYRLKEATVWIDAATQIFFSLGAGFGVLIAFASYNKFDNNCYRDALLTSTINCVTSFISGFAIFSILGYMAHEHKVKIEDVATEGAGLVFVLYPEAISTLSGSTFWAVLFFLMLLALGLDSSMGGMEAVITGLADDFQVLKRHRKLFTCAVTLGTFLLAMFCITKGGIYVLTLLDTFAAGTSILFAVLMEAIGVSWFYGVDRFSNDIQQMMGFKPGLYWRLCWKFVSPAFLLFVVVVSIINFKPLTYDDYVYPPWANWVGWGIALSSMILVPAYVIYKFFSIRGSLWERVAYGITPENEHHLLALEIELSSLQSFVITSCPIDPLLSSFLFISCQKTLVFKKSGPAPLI
SERT, sequence (P31652 whole entry): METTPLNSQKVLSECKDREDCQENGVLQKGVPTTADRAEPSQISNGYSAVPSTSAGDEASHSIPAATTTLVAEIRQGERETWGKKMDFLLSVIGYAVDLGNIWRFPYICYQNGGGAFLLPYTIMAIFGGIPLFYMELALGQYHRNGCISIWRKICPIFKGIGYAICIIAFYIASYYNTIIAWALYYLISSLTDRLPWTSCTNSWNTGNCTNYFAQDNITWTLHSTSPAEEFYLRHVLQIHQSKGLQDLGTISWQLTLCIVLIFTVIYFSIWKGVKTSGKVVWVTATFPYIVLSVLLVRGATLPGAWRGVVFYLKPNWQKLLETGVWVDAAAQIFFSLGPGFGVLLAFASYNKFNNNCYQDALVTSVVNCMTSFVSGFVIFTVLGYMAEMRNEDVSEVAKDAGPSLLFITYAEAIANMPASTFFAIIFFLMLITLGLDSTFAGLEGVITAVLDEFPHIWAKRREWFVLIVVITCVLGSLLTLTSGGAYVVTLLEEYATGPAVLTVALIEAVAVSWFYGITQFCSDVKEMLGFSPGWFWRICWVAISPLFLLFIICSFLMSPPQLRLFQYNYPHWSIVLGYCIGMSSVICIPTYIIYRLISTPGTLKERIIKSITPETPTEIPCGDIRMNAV
DAT, sequence (P23977 whole entry): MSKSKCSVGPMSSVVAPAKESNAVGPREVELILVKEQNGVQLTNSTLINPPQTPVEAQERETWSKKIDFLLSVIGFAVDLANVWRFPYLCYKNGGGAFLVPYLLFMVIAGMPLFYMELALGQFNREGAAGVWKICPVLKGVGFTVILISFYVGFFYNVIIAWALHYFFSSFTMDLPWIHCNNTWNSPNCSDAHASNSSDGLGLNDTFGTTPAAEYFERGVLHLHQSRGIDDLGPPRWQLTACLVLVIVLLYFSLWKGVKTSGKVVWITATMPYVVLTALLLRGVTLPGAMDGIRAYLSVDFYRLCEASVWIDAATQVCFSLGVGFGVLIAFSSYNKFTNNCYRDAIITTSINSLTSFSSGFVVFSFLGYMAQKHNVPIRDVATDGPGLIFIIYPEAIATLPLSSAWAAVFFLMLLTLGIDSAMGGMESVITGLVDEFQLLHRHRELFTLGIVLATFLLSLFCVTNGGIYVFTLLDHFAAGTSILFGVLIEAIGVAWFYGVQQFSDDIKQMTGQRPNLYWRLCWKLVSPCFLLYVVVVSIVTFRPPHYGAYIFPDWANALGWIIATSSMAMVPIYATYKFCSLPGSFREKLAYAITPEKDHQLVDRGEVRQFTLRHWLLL
5-HT2A, sequence (P28223 whole entry): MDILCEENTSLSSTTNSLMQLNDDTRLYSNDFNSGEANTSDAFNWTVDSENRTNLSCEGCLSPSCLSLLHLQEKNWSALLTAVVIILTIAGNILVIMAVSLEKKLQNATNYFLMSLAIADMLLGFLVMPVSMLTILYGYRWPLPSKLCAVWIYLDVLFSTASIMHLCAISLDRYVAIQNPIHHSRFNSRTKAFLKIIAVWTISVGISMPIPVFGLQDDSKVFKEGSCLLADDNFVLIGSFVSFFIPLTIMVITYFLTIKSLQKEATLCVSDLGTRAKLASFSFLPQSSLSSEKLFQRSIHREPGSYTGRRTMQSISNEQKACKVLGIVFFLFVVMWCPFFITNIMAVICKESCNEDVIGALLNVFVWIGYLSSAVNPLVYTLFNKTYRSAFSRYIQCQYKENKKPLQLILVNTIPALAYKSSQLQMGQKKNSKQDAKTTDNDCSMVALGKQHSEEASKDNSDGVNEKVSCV

Row | Structure (SMILES) | Ki (NET) [nM] | Ki (SERT) [nM] | Ki (DAT) [nM] | Ki (5-HT1A) [nM] | Ki (5-HT2A) [nM]
1 | COCC1CNCCN1c1nccc2ccccc12 (racemic) [(±)-14, (±)-1-[2′-(Methoxymethyl)piperazin-1′-yl] isoquinoline] | 4.14 | 1800 | 1570 | > 10000 | > 10000
2 | FCCCOCC1CNCCN1c1nccc2ccccc12 (racemic) [(±)-37] | 71.5 |  |  |  | 
3 | c1ccc(CC2CNCCN2c2nccc3ccccc23)cc1 (racemic) [Compound 9, (±)-1-[2′-(Benzyl)piperazin-1′-yl]isoquinoline] | 16.2 |  |  |  | 
4 | COCC1CNCCN1c1nc(Cl)cc2ccccc12 (racemic) [Compound 17, (±)-3-Chloro-1-[2′-(methoxymethyl)piperazin-1′-yl]isoquinoline] | 14.2 |  |  |  | 
5 | FCCCOC[C@@H]1CNCCN1c1nccc2ccccc12 [(S)-37, (S)-1-[2′-[(3-fluoropropoxy)methyl]piperazin-1′-yl]isoquinoline] | 6.71 |  |  |  | 
